Experimental data: patent publication US20020055094A1 (priority 1996, published 2002)

Experiments:
Assay type in all cases: binding
[1] = test system: influenza A NWS/G70C
[2] = test system: NWS/G70C influenza A virus
[3] = test system: NWS/G70C influenza A virus; remark: listed apart in the source

Question: For “5-acetamido-7-{6′-[6″-(6″′-biotinylaminocaproyl) -tri-amingcaroyl]-aminohexyl}-carbamoyloxy-4-guanidino -2,3,4,5-tetradeoxy-D-glycero-D-gaacto-non-2-enopyranosonic acid [Compound No. 26]”, which “compound concentration giving the best results” value [1] is on record?
Answer: 0.1 µM

Question: What about the “virus amount readily detected” value [1] of the same compound?
Answer: 2.5×10^5 pfu/well

Question: How did the “signal in direct detection” value [2] turn out when `CC(=O)N[C@H]1[C@H]([C@H](OC(=O)NCCCCCCNC(=O)NCCCCCCN)[C@H](O)CO)OC(C(=O)O)=C[C@@H]1NC(=N)N` [Compound No. 8, 5-acetamido-7-[6′-(6″-aminohexylureido)-hexyl]-carbamoyloxy-4-guanidino-2,3,4,5-tetradeoxy-D-glycero-D-galacto-non-2-enopyranosonic acid] was run?
Answer: no signal at any concentration of virus

Question: Which minimum virus detectable [2] does the source give for `CC(=O)N[C@H]1[C@H]([C@H](OC(=O)NCCCCCCNC(=O)CNC(=O)CNC(=O)CNC(=O)CCCC[C@@H]2SC[C@@H]3NC(=O)N[C@@H]32)[C@H](O)CO)OC(C(=O)O)=C[C@@H]1NC(=N)N` [Compound No. 21, 5-acetamido-7-(6′-biotinylamino-tricrlycinamido-hexy) -carbamoyloxy-4-guanidino-2,3,4,5-tetradeoxy-D-glycerQ-D-galacto-non-2-enopyranosonic acid] here?
Answer: about 10^5 virus particles per well

Question: And the “compound concentration giving the best result” value [3]?
Answer: 0.01 µM

Question: What about the “virus detection limit of captured complex” value [3] of the same compound?
Answer: ≤ 0.625×10^5 pfu
